Measured values: PMC3736071, “Probing horseradish peroxidase catalyzed degradation of azo dye from tannery wastewater” (SpringerPlus, 2013)

Test system: T1, horseradish peroxidase (HRP)
T1 construct: gene PRXC1A
Experiment: dye decolorization at […] nm, Lineweaver-Burk plot
Type: biochemical, Armoracia rusticana
Details: free HRP; H2O2 co-substrate (14 μL of 30% w/v per 3 mL, fixed); pH 6.6; 30°C; commercial dye; read-out: apparent Km

- Km: 68 µM
SMILES: O=S(=O)(O)c1cccc(N=Nc2ccc(N=Nc3ccc(Nc4ccccc4)c4c(S(=O)(=O)O)cccc34)c3ccccc23)c1 [C.I. Acid Blue 113]
